Experimental data reported in ChEMBL document CHEMBL1139772, “Synthesis and SAR studies of novel antifungal 1,2,3-triazines” (Bioorg Med Chem Lett, 2007).
Converted amounts (≈) assume the structure as drawn.

What was measured:
[1] = tested on: Blumeria graminis f. sp. tritici; assay: Antifungal activity against Erysiphe graminis f. sp. tritici at […] relative to control; format: functional
[2] = Aqueous solubility at pH 7.0; format: physicochemical
[3] = Partition coefficient, log P by chromatographic hydrophobicity method; format: physicochemical; settings: octanol/water
[4] = Partition coefficient, log P of the compound; format: physicochemical; settings: octanol/water

Row | solubility [2] [µg/mL] | logP [3] | logP [4] | SMILES | Activity [1] [%]
1 | 0.48 (≈ 1.19 µM) | 4.12 |  | COCCOc1nnnc2c1sc1nc(N(C)CCOC)c3c(c12)CCCC3 | 100
2 |  |  |  | CCCOc1nnnc2c1sc1nc(N3CCOCC3)c3c(c12)CCCC3 | 94
3 |  |  |  | CC(C)Oc1nnnc2c1sc1nc(N3CCOCC3)c3c(c12)CCCC3 | 0
4 |  |  |  | CC(C)CCOc1nnnc2c1sc1nc(N3CCOCC3)c3c(c12)CCCC3 | 0
5 |  |  |  | c1coc(COc2nnnc3c2sc2nc(N4CCOCC4)c4c(c23)CCCC4)c1 | 0
6 |  |  |  | CCN(CC)c1nnnc2c1sc1nc(N3CCOCC3)c3c(c12)CCCC3 | 0
7 |  |  |  | C1CCc2c(c(N3CCOCC3)nc3sc4c(N5CCOCC5)nnnc4c23)C1 | 0
8 |  |  |  | NNc1nnnc2c1sc1nc(N3CCOCC3)c3c(c12)CCCC3 | 0
9 | 0.32 (≈ 0.89 µM) | 4.31 |  | COCCN(C)c1nc2sc3c(OC)nnnc3c2c2c1CCCC2 | 100
10 |  |  |  | CCCOc1nc2sc3c(OC)nnnc3c2c2c1CCCC2 | 100
11 |  |  |  | CCOc1nnnc2c1sc1nc(N3CCOCC3)c3c(c12)CCCC3 | 100
12 |  |  |  | COc1nnnc2c1sc1nc(OS(=O)(=O)C(F)(F)F)c3c(c12)CCCC3 | 40
13 | 0.21 (≈ 0.523 µM) | 3.82 |  | COCCOc1nnnc2c1sc1nc(N3CCOCC3)c3c(c12)CCCC3 | 100
14 | 0.79 (≈ 1.96 µM) | 4.09 |  | COCCN(CCOC)c1nc2sc3c(OC)nnnc3c2c2c1CCCC2 | 67
15 |  |  |  | c1ccc(NNc2nnnc3c2sc2nc(N4CCOCC4)c4c(c23)CCCC4)cc1 | 0
16 |  |  |  | Sc1nnnc2c1sc1nc(N3CCOCC3)c3c(c12)CCCC3 | 0

Row | solubility [2] [µg/mL] | logP [3] | logP [4] | SMILES | Activity [1] [%]
17 | 0.08 (≈ 0.233 µM) | 5.32 |  | CCN(CC)c1nc2sc3c(OC)nnnc3c2c2c1CCCC2 | 100
18 |  |  |  | COc1nnnc2c1sc1nc(N(C)Cc3ccccc3)c3c(c12)CCCC3 | 100
19 |  |  |  | CSc1nnnc2c1sc1nc(N3CCOCC3)c3c(c12)CCCC3 | 100
20 |  |  |  | CCSc1nnnc2c1sc1nc(N3CCOCC3)c3c(c12)CCCC3 | 100
21 |  |  |  | c1ccc(CSc2nnnc3c2sc2nc(N4CCOCC4)c4c(c23)CCCC4)cc1 | 0
22 |  |  |  | Clc1nnnc2c1sc1nc(N3CCOCC3)c3c(c12)CCCC3 | 0
23 |  |  |  | COCCNc1nnnc2c1sc1nc(N3CCOCC3)c3c(c12)CCCC3 | 0
24 |  |  |  | COc1nnnc2c1sc1nc(N3CCCC3)c3c(c12)CCCC3 | 92
25 |  |  |  | CCCCN(C)c1nc2sc3c(OC)nnnc3c2c2c1CCCC2 | 83
26 | 0.14 (≈ 0.405 µM) | 3.9 |  | COCCNc1nc2sc3c(OC)nnnc3c2c2c1CCCC2 | 33
27 |  |  |  | C1CCc2c(c(N3CCOCC3)nc3sc4c(OC5CCCC5)nnnc4c23)C1 | 0
28 | 0.08 (≈ 0.224 µM) | 4.06 | 4.25 | COc1nnnc2c1sc1nc(N3CCOCC3)c3c(c12)CCCC3 | 100
29 |  |  |  | CCCCNc1nnnc2c1sc1nc(N3CCOCC3)c3c(c12)CCCC3 | 0
30 |  |  |  | COc1nnnc2c1sc1nc(O)c3c(c12)CCCC3 | 0
31 |  |  |  | CC(Cc1ccc(C(C)(C)C)cc1)CN1C[C@@H](C)O[C@@H](C)C1 (stereo partly specified) [FENPROPIMORPH] | 97
